Measured values as given in paper PMC10747602, “Dose Response, Dosimetric, and Metabolic Evaluations of Replacement PFAS Perfluoro-(2,5,8-trimethyl-3,6,9-trioxadodecanoic) Acid (HFPO-TeA)” (Toxics, 2023).
Where “and” joins values, the source holds several entries; their conditions need not be identical. Identical values can stand only once.

Columns and labels:
[1] = Ultracentrifugation plasma protein binding assay, human plasma; format: in vitro ADME; conditions: both sexes, human
Experimental: (§1) Information on the chemicals and materials used in the plasma protein binding work can be found in Supplementary Text S10 and Table S3. Human and rodent plasma were evaluated for plasma protein binding using ultracentrifugation, as previously described. Working solutions of 3 mM of HFPO-DA, HFPO-TA, and HFPO-TeA were prepared separately in ethanol, with each working solution containing 3 mM of testosterone (Sigma-Aldrich; ≥98% pure) as a reference compound for assay performance. An aliquot of each stock solution (13.3 µL) was added to separate 15 mL tubes with 3.987 mL of plasma for a final assay concentration of 10 µM. The plasma solutions were incubated at 37 °C and 125 rpm for 60 min. One-hour stability samples (T60 min) were drawn in triplicate and diluted in four volumes of plasma ultrafiltrate. Aliquots (1 mL) from each plasma solution were drawn in triplicate and transferred to polycarbonate tubing. These samples underwent ultracentrifugation (Beckman OptimaMax; Beckman Coulter Inc., Brea, CA, USA) at 850,000× g for 4 h at 37 °C.
(§2) The remaining plasma solutions were returned for incubation at 37 °C and 125 rpm for an additional 4 h. Five-hour stability samples (T300 min) were then drawn in triplicate and diluted in four volumes of plasma ultrafiltrate. After ultracentrifugation, the aqueous fraction (AF) was collected by transferring the supernatant to a new tube and diluting in an equal volume of plasma for matrix matching. All samples were combined with 3 volumes of ice-cold ACN containing 16 ng/mL of ^13C3-HFPO-DA and 16 ng/mL of ^13C-Testosterone (Cambridge Isotope Laboratories; 98% pure). Samples were vigorously mixed, stored for 10 min at −20 °C, and then centrifuged at 12,000× g for 10 min at 4 °C. Supernatants were collected then stored at −70 °C prior to analysis.
(§3) Fraction unbound (fu) in plasma (fup) and percent stability calculations are detailed in Supplementary Text S10. Hepatic clearance, the fu in blood (fub) (fu in plasma adjusted for blood:plasma partitioning), and renal clearance were used to derive the steady-state concentration (Css) of each compound that will be used for in vitro–in vivo extrapolation (IVIVE). Renal clearance was calculated using the glomerular filtration rate (a species-dependent constant) and the fub. The Css calculation is detailed in Supplementary Text S11.
(§4) The gradient is available in Table S11. […]
(§5) Chemical stability in plasma was assessed
(§6) (F) Percent Stability = T300minutesT60minutes∗100

Human plasma = experiment: as above; format: in vitro ADME; conditions: 10000 nM; for Average Stability (T5hr/ T1hr): 37 °C; for Aqueous Fraction concentration: after ultracentrifugation; for Aqueous Fraction concentration / Fraction Unbound in plasma (fup) / Stability (T5hr/ T1hr) / Time 1 hr concentration / Time 5 hr concentration: replicates A-C
Experimental: as §1, §2, §3, §4, §5, §6

[2] = test system: Sprague Dawley rodent plasma; experiment: Ultracentrifugation plasma protein binding assay, rat plasma; format: in vitro ADME; conditions: rat plasma, 10000 nM
Experimental: as §1, §2, §3, §4, §5, §6

[3] = as above; format: in vitro ADME; conditions: both sexes, Sprague Dawley, rat
Experimental: as §1, §2, §3, §4, §5, §6

hepatocytes = experiment: Hepatic metabolite formation assay with non-targeted analysis; format: in vitro ADME, human and rat
Experimental: Extracts of plasma (50 µL), liver (10 mg), and hepatocyte metabolism assay media (10 µL) were analyzed by high-resolution, accurate mass non-targeted analysis (NTA) for the detection and identification of potential biotransformation products of HFPO-TeA. A mixture of ^13C-labeled PFAS compounds (MPAC-C-ES, Wellington Laboratories, Guelph, ON, Canada) were used as tracers. Samples were extracted, as detailed above (in vivo) and below (in vitro), and then analyzed in triplicate in a randomized order on a Sciex X500R QTOF. Additional information on NTA instrumental analysis and data processing parameters is presented in Supplementary Text S8 and Tables S8 and S10 [52]. […] A screening list of potential biotransformation products was generated using the U.S. EPA web application CTS: Chemical Transformation Simulator 1.0 and Biotransformer 3.0 [53, 54]. In some instances, molecular structure predictions were performed using MetFrag.
For the hepatic metabolite formation assays, the procedure described above was followed with the following modifications: assay concentrations of 50 and 100 µM were used, and samples were collected at times T0, T30, T60, and T120 min. Aliquots (10 µL) were combined with an equal volume of H2O. Non-targeted screening of potential biotransformation or degradation products of these samples was performed on the Sciex instrumentation described above.

[4] = In vitro-in vivo extrapolation (IVIVE) to estimate Css, human; conditions: for Css / Css (steady-state concentration, plasma): IVIVE, BW 70 kg; for Css: ID 0.042 mg/kg/hr; for Css (steady-state concentration, plasma): intake dosage 1 mg/kg/day; for fraction unbound: blood, fub=fup/(1-hemocrit ref value), hematocrit 0.45; for Clint: scaled (HPGL 110, Vl 1596 g)
Experimental: as §3
Linear regression analysis in conjunction […]
cells in the Clint equation. […]
concentration by the T300 min concentration (Equation E). Chemical stability in plasma was assessed […]
(F) Percent Stability = T300minutesT60minutes∗100 […]
blood (fub) of the parent compound. The Clhepatic calculation is shown in the second part of the denominator of Equation G; it is the product of the species dependent liver blood flow constant, the fub of the parent compound, and the experimentally derived intrins ic clearance (s hown in Equation D) divided by the sum these three values. All values used in Equation G are for first order conditions of metabolism in the liver. All calculations, scalars, and species dependent values used to conduct the Css calculation to facilitate in vitro-in vivo extrapolation (IVIVE) are provided Table S19 within the Excel worksheet, the tab […]
Based on the principle of reverse dosimetry, the Css values derived from IVIVE will be u sed as conversion factors to generate AEDs according to Equation H. In this equation, the AED is linearly related to the in vitro concentration and inversely related to the Css. It is only valid for first-order metabolism that is expected at ambient exposure levels.
(H) AED ൮ mgkg൲ = in vitro concentration (µM )

[5] = plasma, 10 µM, ultracentrifugation, read-out: Experimental fup (average fraction unbound in plasma)
[6] = pooled human plasma, 10000 nM, replicates A-C, read-out: Fraction Unbound in plasma (fup)
[7] = plasma, Rat plasma, 10 µM, ultracentrifugation, read-out: Experimental fup (average fraction unbound in plasma)
[8] = rat plasma, 10000 nM, Rep A, read-out: Fraction Unbound in plasma (fup), Rep A
[9] = rat plasma, 10000 nM, Rep B, read-out: Fraction Unbound in plasma (fup), Rep B
[10] = rat plasma, 10000 nM, Rep C, read-out: Fraction Unbound in plasma (fup), Rep C

| SMILES | fraction unbound at 4 h, 10 µM [1, 5] | fraction unbound at 4 h, 10 µM [1, 6] | Average Stability (T5hr/ T1hr) (Human plasma) | Aqueous Fraction concentration (Human plasma) | Fraction Unbound in plasma (fup) (Human plasma) | Stability (T5hr/ T1hr) (Human plasma) | Time 1 hr concentration (Human plasma) | Time 5 hr concentration (Human plasma) | Average Stability (T5hr/ T1hr) [2] | Aqueous Fraction, Rep A [2] | Stability (T5hr/ T1hr), Rep A [2] | Time 1 hr concentration, Rep A [2] | Time 5 hr concentration, Rep A [2] | Aqueous Fraction, Rep B [2] | Time 1 hr concentration, Rep B [2] | Aqueous Fraction, Rep C [2] | Stability (T5hr/ T1hr), Rep C [2] | Time 1 hr concentration, Rep C [2] | Time 5 hr concentration, Rep C [2] | fraction unbound at 4 h, 10 µM [3, 7] | other results |
| --- | --- | --- | --- | --- | --- | --- | --- | --- | --- | --- | --- | --- | --- | --- | --- | --- | --- | --- | --- | --- | --- |
| O=C(O)C(F)(OC(F)(F)C(F)(OC(F)(F)C(F)(F)C(F)(F)F)C(F)(F)F)C(F)(F)F (centres unmarked) [HFPO-TA, perfluoro-(2,5-dimethyl-3,6-dioxanonanoic) acid] | 0.0013 | 0.0013 | 1.0308 | 8.96 nM and 9.6 nM and 15.04 nM | 0.0011 and 0.0015 | 0.7676 and 1.2763 and 1.0484 | 8.7016 µM and 7.0496 µM and 9.7592 µM | 6.6792 µM and 8.9976 µM and 10.232 µM | 1.0261 | 16.00 nM | 0.9209 | 10.52 µM | 9.688 µM | 16.00 nM | 8.76 µM | 22.40 nM | 0.9866 | 10.184 µM | 10.048 µM | 0.0018 | Stability (T5hr/ T1hr), Rep B [2]: 1.1708; Time 5 hr concentration, Rep B [2]: 10.256 µM; fraction unbound at 4 h, 10 µM [3, 8]: 0.00165; fraction unbound at 4 h, 10 µM [3, 9]: 0.00156; fraction unbound at 4 h, 10 µM [3, 10]: 0.00223; abundance relative to HFPO-TeA (hepatocytes; T0 active hepatocyte preparation): < 1%; Clhep (hepatic clearance) [4]: 0 L/h; Css [4]: 186.41 mg/L; Css (steady-state concentration, plasma) [4]: 375.76 µM and 375.7648 µM; fraction unbound [4]: 0.0024; Clint [4]: 0 µL/min |
| O=C(O)C(F)(OC(F)(F)C(F)(F)C(F)(F)F)C(F)(F)F (centres unmarked) [HFPO-DA, perfluoro-2-methyl-3-oxahexanoic acid] | 0.0098 | 0.0099 | 0.9905 | 72.64 nM and 73.60 nM and 65.28 nM | 0.0095 | 0.9836 and 1.1438 and 0.8441 | 7.4664 µM and 6.7536 µM and 7.8224 µM | 7.344 µM and 7.7248 µM and 6.6032 µM | 1.0909 | 265.60 nM | 1.0510 | 8.312 µM | 8.736 µM | 230.40 nM | 7.672 µM | 240 nM | 1.1308 | 6.848 µM | 7.744 µM | 0.0307 | fraction unbound at 4 h, 10 µM [3, 8]: 0.0304; fraction unbound at 4 h, 10 µM [3, 10]: 0.031; Clhep (hepatic clearance) [4]: 0 L/h; Css [4]: 24.67 mg/L; Css (steady-state concentration, plasma) [4]: 74.75 µM and 74.7454 µM; fraction unbound [4]: 0.0178; Clint [4]: 0 µL/min |
| O=C(O)C(F)(OC(F)(F)C(F)(OC(F)(F)C(F)(OC(F)(F)C(F)(F)C(F)(F)F)C(F)(F)F)C(F)(F)F)C(F)(F)F (centres unmarked) [HFPO-TeA, perfluoro-(2,5,8-trimethyl-3,6,9-trioxadodecanoic) acid] | 0.0124 | 0.0121 | 1.0363 | 83.20 nM and 80 nM and 121.60 nM | 0.0109 and 0.0142 | 0.9304 and 0.9406 and 1.2379 | 7.36 µM and 7.808 µM and 6.928 µM | 6.848 µM and 7.344 µM and 8.576 µM | 1.1996 | 38.40 nM | 0.9294 | 8.384 µM | 7.792 µM | 35.20 nM | 6.528 µM | 48.00 nM | 1.6301 | 3.936 µM | 6.416 µM | 0.0059 | Stability (T5hr/ T1hr), Rep B [2]: 1.0392; Time 5 hr concentration, Rep B [2]: 6.784 µM; fraction unbound at 4 h, 10 µM [3, 8]: 0.00493; fraction unbound at 4 h, 10 µM [3, 9]: 0.00519; fraction unbound at 4 h, 10 µM [3, 10]: 0.00748; presence of predicted biotransformation products (non-targeted analysis) (hepatocytes; in vitro hepatocyte assays): None of the biotransformation products predicted using CTS were observed; Clhep (hepatic clearance) [4]: 0 L/h; Css [4]: 19.42 mg/L; Css (steady-state concentration, plasma) [4]: 29.34 µM and 29.3351 µM; fraction unbound [4]: 0.0226; Clint [4]: 0 µL/min |
